Source: US7476508B2, “Method of screening agent for improving memory and learning ability” (Astellas Pharma Inc., priority 2003, dated 2009)
Blank lines part the entries; values can stand above or below the molecule they belong to.

Assays:
[1] = biological target: T1, polypeptide consisting of the amino acid sequence of SEQ ID NO: 2 (Homo sapiens, UniProt Q9HCF6, R1695Q); experiment: Calcium influx with calcium-sensitive fluorescent reagent (Fluo3-AM, FLIPR) in HEK293 transformants; assay type: cell-based; conditions: for EC50: method of Example 6, read-out: EC50 of activation (calcium influx)
T1 construct: expressed in transfected cells
From the text: (§1) To detect a channel activity of the polypeptide consisting of the amino acid sequence of SEQ ID NO: 2, animal cells were transfected with the expression vector pcDNA3.1-MLSN2 obtained in Example 1 to express the polypeptide. The expression vector pcDNA3.1-MLSN2 obtained in Example 1 and reagents for transfection (LIPOFECTAMINE or LIPOFECTAMINE2000; Invitrogen) were used to transform human embryonic kidney derived HEK293 cells (ATCC No.: CRL-1573) and induce the expression of the polypeptide consisting of the amino acid sequence of SEQ ID NO: 2. The cells transfected with LIPOFECTAMINE were used in Examples 4 and 5, and the cells transfected with LIPOFECTAMINE2000 were used in Examples 6, 7, and 16.
(§2) The transformants (4×10^4 cells) obtained in Example 3 were incubated at 37° C. for an hour in the presence of a calcium-sensitive fluorescent reagent (Fluo3-AM; DOJINDO), and the reagent was incorporated into the cells. The cells were washed with a physiological saline to remove the reagent not incorporated. A physiological saline supplemented with PS (final concentration=10 μmol/L) was added to the treated cells, and a time course of fluorescence emitted from the cells was measured using an automated fluorescence detector (FLIPR; Molecular Device). As controls, the same procedures were repeated, except that HEK293 cells transfected with pcDNA3.1(+) (i.e., control cells not expressing the polypeptide of SEQ ID NO: 2) were used, or except that a physiological saline without PS was used.
A screening of compounds (activating agents) capable of activating the polypeptide consisting of the amino acid sequence of SEQ ID NO: 2 was carried out. As an index of activation, a calcium influx into cells was detected by using a calcium-sensitive fluorescent reagent, more particularly, in accordance to the method described in Example 6.

[2] = system: primary cultured neurons derived from the rat hippocampus; experiment: Spontaneous excitatory postsynaptic currents (sEPSCs) by whole-cell patch-clamp in primary cultured neurons; assay type: cell-based; conditions: voltage-clamped at −60 mV
From the text: (§3) A pregnant rat was anesthetized with diethyl ether, and the chest (heart) was dissected to sacrifice the rat by exsanguination. An abdomen was opened, and the uterus was dissected. After a fetus was sterilized with rubbing alcohol in a clean bench, the whole brain was dissected and placed in a petri dish containing a culture medium for neurons (SUMILON; Sumitomo Bakelite). The cerebral cortex and the hippocampus were dissected with fine forceps under a stereomicroscope, and transferred to 50-mL tubes independently. Each tube was allowed to stand, to precipitate each tissue, and each supernatant was removed by suction. A solution for cell dissocition [phosphate buffered saline (PBS) supplemented with 1% papain, 150 U/mL DNase I, 0.02% L-cysteine, 0.02% bovine serum albumin (BSA), and 0.5% glucose] was added to each tube, incubated at 37° C. for 15 minutes, and centrifuged (1000 rpm, 4° C., 5 minutes). Each supernatant was removed by suction, and 10 mL of a serum-free medium was added to each tube. The whole in each tube was dispersed by pipetting several times, and cell debris was removed through a filter to obtain each cell suspension.
To confirm the effects of the activating agents on improving the memory, improving learning ability, and/or antidementia, any one of the compounds A, B, C, and D, which were found in Example 16 and can activate the polypeptide consisting of the amino acid sequence of SEQ ID NO: 2, was applied to the neurons to examine an activity of enhancing neurotransmission in the neurons. More particularly, effects of compounds A, B, C, and D on spontaneous excitatory postsynaptic currents (sEPSCs) in primary cultured neurons derived from the rat hippocampus, obtained in Example 13, were examined by a whole-cell patch-clamp method. The sEPSCs is a change of current generated in the neurons, when synaptic vesicles located at the terminus of another cell spontaneously exocytosis a neurotransmitter, and the former cell receives the released neurotransmitter. Therefore, neurotransmission between the neurons can be measured by measuring the sEPSCs (Journal of Neurophysiology, 76, 3159-3168, 1996; The Journal of Neuroscience, 19, 5311-5321, 1999). Further, it is known that the neurotransmission is suppressed by inhibiting the sEPSCs (Journal of Neuroscience Research, 72, 116-124, 2003).
More particularly, the cells (approximately 1×10^5 cells per dish) obtained in Example 13 were plated in a culture dish having a diameter of 35 mm, and cultured for 1 to 5 weeks. As a culture medium, a culture medium for the neurons (SUMILON; Sumitomo Bakelite) was used. Other procedures for cultivation were carried out in accordance with known methods (Methods in Neuroscience vol. 2, Cell culture, P. Michael Conn ed, Academic Press, Inc. 1990). The cell was voltage-clamped at −60 mV by a whole-cell voltage-clamp method, and a whole-cell current generated when PS or each compound was applied was measured (Yasunobu Okada ed., “Shin pacchi kuranpu jikken gijyutsu hou”, Yoshioka shoten, 2001). A solution containing 140 mmol/L NaCl, 5.4 mmol/L KCl, 2 mmol/L CaCl2, 0.8 mmol/L MgCl2, 15 mmol/L glucose, 10 mmol/L HEPES-Na (pH=7.4), 20 μmol/L bicuculline, and 1 μmol/L strychnine was used as an extracellular solution. A solution containing 100 mmol/L potassium gluconate, 10 mmol/L EGTA, 5 mmol/L MgCl2, 2 mmol/L K2ATP, 0.3 mmol/L Na2GTP, and 40 mmol/L HEPES-K (pH=7.25) was used as an intracellular solution.

[3] = system: HEK cells not expressing the polypeptide of SEQ ID NO: 2; experiment: Calcium influx (Fluo3-AM, FLIPR) in control HEK293 cells; assay type: cell-based, human; conditions: for increase in fluorescent intensity: negative control cells
Experimental: as §2
Various compounds were examined, and, as a compound showing an increase in fluorescent intensity, N-[3-(2,6-dichlorophenyl)-5-methylisoxazole-4-yl]-N′-ethyl-N-methyl-N′-phenylurea (code no. SPB 00071; MAYBRIDGE), 3-(2,6-difluorophenyl)-4-(piperidine-1-ylmethyl)-1,3-thiazole-2(3H)-thion (code no. MS 1368; MERLIN), 3-(2,6-difluorophenyl)-4-(pyrrolidine-1-ylmethyl)-1,3-thiazole-2(3H)-thion (code no. MS 1370; MERLIN), and N-(2-acetyl-3-thienyl)-2-[(2-chloro-6-fluorobenzyl)sulfanil]acetamide (code no. GK 00678; Ryan Scientific) (hereinafter referred to as compounds A, B, C, and D, respectively) were found.

[4] = system: primary cultured neurons derived from rat cerebral cortex; experiment: Calcium influx in primary cultured neurons derived from rat cerebral cortex; assay type: cell-based
From the text: as §3
This example was carried out in accordance with known methods (Yoshihisa Kudo ed., Jikken Igaku, Supplement “Saibo-nai karushiumu jikken purotokoru”, 1996, Youdo-sha), except for the following procedures.
A time course of fluorescence emitted from cells was measured in accordance with the method described in Example 6, except that the primary cultured neurons (4×10^4 cells) derived from the rat brain (cerebral cortex), obtained in Example 13, were cultured for a week and used, and that the final concentration of PS was 10 μmol/L or 50 μmol/L. As a control, a physiological saline without PS was used.
Any one of compounds A, B, C, and D, and PS was applied to primary cultured neurons derived from the rat cerebral cortex obtained in Example 13, and a calcium influx into the neurons was measured. More particularly, the measurement was carried out in accordance with the method described in Example 14, except that the number of cells was 1×10^5 cells.

aged rats = conditions: non-patent reference 5; cited from earlier work
hippocampal slices = conditions: non-patent references 3, 6 and 7; cited from earlier work
[5] = biological target: T1, polypeptide consisting of the amino acid sequence of SEQ ID NO: 2; experiment: Whole-cell voltage-clamp detection of channel activity in transfected HEK293 cells; assay type: cell-based; conditions: n=10
From the text: as §1
Each cell obtained in Example 3 was voltage-clamped by a whole-cell voltage-clamp method, and a whole-cell current generated when PS was applied was measured. […]
(§4) When PS (100 μmol/L) was extracellularly applied to the cell transfected with plasmid pcDNA3.1-MLSN2 at a holding potential of −40 mV, an inward current (−5.8±0.9, n=10) was measured. After washing the cell, PS was applid thereto at a holding potential of +40 mV, a large outward current (108.9±19.3, n=10) was measured. A current-voltage relationship was measured using a voltage ramp during the response, an outward rectifier was observed.

[6] = system: control cell not expressing the polypeptide of SEQ ID NO: 2; experiment: Whole-cell voltage-clamp in control cell transfected with no expression vector; assay type: cell-based, human; conditions: same conditions as the transfected cell
Experimental: Each cell obtained in Example 3 was voltage-clamped by a whole-cell voltage-clamp method, and a whole-cell current generated when PS was applied was measured. A solution containing 149 mmol/L NaCl, 5 mmol/L KCl, 2 mmol/L CaCl2, 0.8 mmol/L MgCl2, and 10 mmol/L HEPES-Na (pH=7.4) was used as an extracellular solution, and a solution containing 147 mmol/L CsCl, 4.5 mmol/L EGTA, and 9 mmol/L HEPES-Cs(pH=7.2) was used as an intracellular solution.
as §4

[7] = final concentration 10 μmol/L, 1×10^5 cells

T1 sequence (Q9HCF6 154-1707 isoform Q9HCF6-2 R1670Q): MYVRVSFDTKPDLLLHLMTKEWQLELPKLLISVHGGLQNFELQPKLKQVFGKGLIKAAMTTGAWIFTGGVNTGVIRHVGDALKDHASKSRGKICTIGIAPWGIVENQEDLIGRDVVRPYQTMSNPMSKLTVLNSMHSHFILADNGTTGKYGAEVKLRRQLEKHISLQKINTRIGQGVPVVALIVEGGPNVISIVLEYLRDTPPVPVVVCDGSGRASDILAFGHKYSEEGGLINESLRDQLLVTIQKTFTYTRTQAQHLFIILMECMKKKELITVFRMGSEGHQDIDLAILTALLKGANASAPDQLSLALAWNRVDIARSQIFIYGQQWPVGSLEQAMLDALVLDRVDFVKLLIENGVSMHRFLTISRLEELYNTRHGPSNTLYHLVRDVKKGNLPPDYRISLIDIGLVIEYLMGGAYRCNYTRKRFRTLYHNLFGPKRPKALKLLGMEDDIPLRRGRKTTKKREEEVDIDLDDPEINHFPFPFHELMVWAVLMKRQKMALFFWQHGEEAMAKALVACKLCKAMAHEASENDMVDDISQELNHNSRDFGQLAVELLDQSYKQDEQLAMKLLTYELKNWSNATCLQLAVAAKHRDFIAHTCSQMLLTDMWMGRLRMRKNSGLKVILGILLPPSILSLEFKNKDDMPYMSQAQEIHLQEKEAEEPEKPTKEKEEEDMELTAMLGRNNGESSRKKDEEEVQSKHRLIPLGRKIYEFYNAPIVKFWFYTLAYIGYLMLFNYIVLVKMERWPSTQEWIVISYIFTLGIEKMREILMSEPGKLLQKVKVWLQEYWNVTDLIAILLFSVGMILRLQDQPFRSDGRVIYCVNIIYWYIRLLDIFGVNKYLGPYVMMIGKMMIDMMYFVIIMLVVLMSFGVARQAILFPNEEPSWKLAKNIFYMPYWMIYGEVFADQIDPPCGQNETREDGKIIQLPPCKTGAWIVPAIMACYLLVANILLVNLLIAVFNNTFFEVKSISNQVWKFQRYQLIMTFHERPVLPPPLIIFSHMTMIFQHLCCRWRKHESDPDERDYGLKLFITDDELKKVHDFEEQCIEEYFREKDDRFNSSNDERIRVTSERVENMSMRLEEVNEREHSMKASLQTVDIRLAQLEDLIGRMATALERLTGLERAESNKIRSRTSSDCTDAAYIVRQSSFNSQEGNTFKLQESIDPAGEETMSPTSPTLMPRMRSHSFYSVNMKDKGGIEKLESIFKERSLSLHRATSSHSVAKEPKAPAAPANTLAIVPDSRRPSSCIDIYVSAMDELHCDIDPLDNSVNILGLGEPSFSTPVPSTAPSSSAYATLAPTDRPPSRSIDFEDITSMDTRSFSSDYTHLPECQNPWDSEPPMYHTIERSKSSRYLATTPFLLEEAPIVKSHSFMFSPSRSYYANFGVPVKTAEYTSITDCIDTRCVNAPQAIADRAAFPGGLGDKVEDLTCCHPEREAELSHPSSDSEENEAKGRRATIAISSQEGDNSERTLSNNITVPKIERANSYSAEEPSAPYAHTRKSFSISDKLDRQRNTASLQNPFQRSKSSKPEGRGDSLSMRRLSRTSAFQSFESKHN

Molecule: Fc1cccc(F)c1-n1c(CN2CCCCC2)csc1=S [compound B, 3-(2,6-difluorophenyl)-4-(piperidine-1-ylmethyl)-1,3-thiazole-2(3H)-thion]
EC50 [1]: 6.8 µM
enhancement of sEPSCs ([2]; 10 μmol/L): the enhancement of sEPSCs was detected
increase in fluorescent intensity [3]: such an increase in fluorescent intensity was not detected
increase in fluorescent intensity (calcium influx) [4, 7]: an increase in fluorescent intensity was detected

Molecule: Pregnenolone sulfate [PS, reference compound]
memory and learning ability (aged rats): the memory and learning ability were improved
neurotransmission (acetylcholine release, hippocampal spike frequency, LTP) (hippocampal slices): enhancement of neurotransmission
increase in fluorescent intensity (calcium influx) ([1]; final concentration 10 μmol/L, immediately after addition): approximately 10,000 counts
enhancement of sEPSCs ([2]; 10 μmol/L): the enhancement of sEPSCs was similarly detected
inward current ([5]; PS 100 μmol/L applied extracellularly, holding potential −40 mV): −5.8±0.9
outward current ([5]; PS applied after washing, holding potential +40 mV): 108.9±19.3
whole-cell currents on PS application [6]: such currents were not observed
fluorescent intensity (calcium influx) ([3]; PS 10 μmol/L, HEK293 cells transfected with pcDNA3.1(+)): approximately 0 count
increase in fluorescent intensity (calcium influx) ([4]; 10 μmol/L, 4×10^4 cells cultured for a week): an increase in fluorescent intensity was detected
increase in fluorescent intensity (calcium influx) ([4]; 50 μmol/L, 4×10^4 cells cultured for a week): an increase in fluorescent intensity was detected
increase in fluorescent intensity (calcium influx) [4, 7]: an increase in fluorescent intensity was detected

Second part, led by results:

EC50 [1]: 9.8 µM
Molecule: CCN(C(=O)N(C)c1c(-c2c(Cl)cccc2Cl)noc1C)c1ccccc1 [compound A, N-[3-(2,6-dichlorophenyl)-5-methylisoxazole-4-yl]-N′-ethyl-N-methyl-N′-phenylurea]
enhancement of sEPSCs ([2]; 10 μmol/L): the enhancement of sEPSCs was detected
increase in fluorescent intensity [3]: such an increase in fluorescent intensity was not detected
increase in fluorescent intensity (calcium influx) [4, 7]: an increase in fluorescent intensity was detected

EC50 [1]: 1.9 µM
Molecule: Fc1cccc(F)c1-n1c(CN2CCCC2)csc1=S [compound C, 3-(2,6-difluorophenyl)-4-(pyrrolidine-1-ylmethyl)-1,3-thiazole-2(3H)-thion]
enhancement of sEPSCs ([2]; 10 μmol/L): the enhancement of sEPSCs was detected
increase in fluorescent intensity [3]: such an increase in fluorescent intensity was not detected
increase in fluorescent intensity (calcium influx) [4, 7]: an increase in fluorescent intensity was detected

EC50 [1]: 3.5 µM
Molecule: CC(=O)c1sccc1NC(=O)CSCc1c(F)cccc1Cl [compound D, N-(2-acetyl-3-thienyl)-2-[(2-chloro-6-fluorobenzyl)sulfanil]acetamide]
enhancement of sEPSCs ([2]; 1 μmol/L): the enhancement of sEPSCs was detected
increase in fluorescent intensity [3]: such an increase in fluorescent intensity was not detected
increase in fluorescent intensity (calcium influx) [4, 7]: an increase in fluorescent intensity was detected
